# Laboratory results as given in patent US11214594B2, “Antimicrobial peptide having synergistic antibacterial effect with antibiotics on multidrug resistant bacteria, and use thereof” (priority 2016, dated 2022).
# Like-named read-outs stand apart in the source and are kept apart here. Where a SMILES comes first, the peptide text is derived from it.
# Assays:
# MDRAB 12035 [1] = assay: MIC of antibiotic during combined treatment with antimicrobial peptide; type: cell-based, Acinetobacter baumannii
# In short: (§1)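 Antibiotic MIC came from antibiotic dilutions added to bacteria (2×10^6 CFU/ml, MH medium) already combined with peptide serially diluted 2:1 from its own MIC. Swapping the roles of the two agents gave the peptide MIC.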
# S. aureus = assay: microbe, parasite or virus in culture; type: cell-based, Staphylococcus aureus
# In short: (§2)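 Broth microdilution in MH medium: strains diluted to 2×10^6 CFU were mixed with equal volumes of twofold serial peptide dilutions in MH medium. MIC was taken as the lowest peptide concentration preventing bacterial growth.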
# MDREC 1229 [2] = assay: MIC of antibiotic during combined treatment with antimicrobial peptide; type: cell-based, Escherichia coli
# In short: as §1
# B. subtilis = assay: microbe, parasite or virus in culture; type: cell-based, Bacillus subtilis
# In short: as §2
# MDREC 1238 = type: cell-based, Escherichia coli
# In short: as §2
# MRSA 3126 = type: cell-based, Staphylococcus aureus; details: 3126
# In short: as §2
# MRSA 3114 = type: cell-based, Staphylococcus aureus; details: 3114
# In short: as §2
# MDRPA 2002 = type: cell-based, Pseudomonas aeruginosa
# In short: as §2
# MDRPA 2003 = type: cell-based, Pseudomonas aeruginosa
# In short: as §2
# A. baumannii [3] = assay: MIC of antimicrobial peptide during combined treatment with antibiotic; type: cell-based, Acinetobacter baumannii
# In short: as §1
# MDRAB 12035 [4] = assay: as above; type: cell-based, Acinetobacter baumannii
# In short: as §1
# S. epidermidis = assay: microbe, parasite or virus in culture; type: cell-based, Staphylococcus epidermidis
# In short: as §2
# MDRAB 12036 = type: cell-based, Acinetobacter baumannii
# In short: as §2
# MDRST 8007 = assay: Minimal inhibitory concentration (MIC), single agent; type: cell-based, Salmonella typhimurium; details: agent alone
# In short: as §2
# S. typhimurium = assay: microbe, parasite or virus in culture; type: cell-based, Salmonella typhimurium
# In short: as §2
# MDREC 1229 [5] = type: cell-based, Escherichia coli
# In short: as §1
# E. coli = type: cell-based, Escherichia coli; details: E. coli
# In short: as §1
# P. aeruginosa = assay: microbe, parasite or virus in culture; type: cell-based, Pseudomonas aeruginosa
# In short: as §2
# A. baumannii [6] = assay: microbe, parasite or virus in culture; type: cell-based, Acinetobacter baumannii
# In short: as §2
# MDRAB 12035 [7] = assay: microbe, parasite or virus in culture; type: cell-based, Acinetobacter baumannii
# In short: as §2
# [8] = peptide treatment concentration 1 μg/ml
# [9] = peptide treatment concentration 2 μg/ml
# [10] = peptide treatment concentration 4 μg/ml
# [11] = peptide treatment concentration 6 μg/ml
# [12] = peptide treatment concentration 8 μg/ml
# [13] = peptide treatment concentration 16 μg/ml
# [14] = peptide treatment concentration 32 μg/ml
# [15] = peptide treatment concentration 64 μg/ml
# [16] = erythromycin 4 μg/ml (Conc./MIC 1/8)
# [17] = erythromycin 8 μg/ml (Conc./MIC 1/4)
# [18] = erythromycin 16 μg/ml (Conc./MIC 1/2)
# [19] = erythromycin 32 μg/ml (Conc./MIC 1)
# [20] = vancomycin 512 μg/ml (Conc./MIC 1/2)
# [21] = vancomycin 1024 μg/ml (Conc./MIC 1)
# [22] = with Erythromycin […] (Conc./MIC 1)
structure (smiles),measurement,setting,value
"CC[C@H](C)[C@H](NC(=O)[C@H](CCCCN)NC(=O)[C@H](Cc1c[nH]c2ccccc12)NC(=O)[C@@H](N)CCCNC(=N)N)C(=O)N[C@@H](Cc1ccccc1)C(=O)N[C@@H](CCCCN)C(=O)N[C@@H](CCCCN)C(=O)N[C@H](C(=O)N1CCC[C@H]1C(=O)N[C@@H](CCCCN)C(=O)N[C@@H](CC(C)C)C(=O)N[C@@H](CC(C)C)C(=O)N[C@@H](Cc1c[nH]cn1)C(=O)N[C@@H](CO)C(=O)N[C@@H](CC(C)C)C(=O)N[C@@H](CCCCN)C(=O)N[C@@H](CCCCN)C(=O)N[C@@H](Cc1c[nH]c2ccccc12)C(N)=O)[C@@H](C)CC [PapMA-10, RWK IFK KIP KLL HSL KKW-NH2] (H-RWKIFKKIPKLLHSLKKW-NH2; N-terminus assumed)",Erythromycin MIC during combined treatment with peptide,MDRAB 12035 [1]; [8],32 µg/mL
same,Linezolid MIC during combined treatment with peptide,MDRAB 12035 [1]; [8],>128 µg/mL
same,Vancomycin MIC during combined treatment with peptide,MDRAB 12035 [1]; [8],>128 µg/mL
same,Erythromycin MIC during combined treatment with peptide,MDRAB 12035 [1]; [9],32 µg/mL
same,Linezolid MIC during combined treatment with peptide,MDRAB 12035 [1]; [9],>128 µg/mL
same,Vancomycin MIC during combined treatment with peptide,MDRAB 12035 [1]; [9],>128 µg/mL
same,Erythromycin MIC during combined treatment with peptide,MDRAB 12035 [1]; [10],16 µg/mL
same,Linezolid MIC during combined treatment with peptide,MDRAB 12035 [1]; [10],64 µg/mL
same,Vancomycin MIC during combined treatment with peptide,MDRAB 12035 [1]; [10],64 µg/mL
same,Erythromycin MIC during combined treatment with peptide,MDRAB 12035 [1]; [11],8 µg/mL
same,Linezolid MIC during combined treatment with peptide,MDRAB 12035 [1]; [11],32 µg/mL
same,Vancomycin MIC during combined treatment with peptide,MDRAB 12035 [1]; [11],32 µg/mL
same,Erythromycin MIC during combined treatment with peptide,MDRAB 12035 [1]; [12],8 µg/mL
same,Linezolid MIC during combined treatment with peptide,MDRAB 12035 [1]; [12],16 µg/mL
same,Vancomycin MIC during combined treatment with peptide,MDRAB 12035 [1]; [12],16 µg/mL
same,Erythromycin MIC during combined treatment with peptide,MDRAB 12035 [1]; [13],4 µg/mL
same,Linezolid MIC during combined treatment with peptide,MDRAB 12035 [1]; [13],8 µg/mL
same,Vancomycin MIC during combined treatment with peptide,MDRAB 12035 [1]; [13],4 µg/mL
same,Erythromycin MIC during combined treatment with peptide,MDRAB 12035 [1]; [14],0 µg/mL
same,Linezolid MIC during combined treatment with peptide,MDRAB 12035 [1]; [14],2 µg/mL
same,Vancomycin MIC during combined treatment with peptide,MDRAB 12035 [1]; [14],4 µg/mL
same,Erythromycin MIC during combined treatment with peptide,MDRAB 12035 [1]; [15],0 µg/mL
same,Linezolid MIC during combined treatment with peptide,MDRAB 12035 [1]; [15],0 µg/mL
same,Vancomycin MIC during combined treatment with peptide,MDRAB 12035 [1]; [15],0 µg/mL
same,Minimal inhibitory concentration MIC,S. aureus,>128 µg/mL
same,"Antibiotic MIC, Erythromycin",MDREC 1229 [2]; [8],>128 µg/mL
same,"Antibiotic MIC, Linezolid",MDREC 1229 [2]; [8],>128 µg/mL
same,"Antibiotic MIC, Vancomycin",MDREC 1229 [2]; [8],>128 µg/mL
same,"Antibiotic MIC, Erythromycin",MDREC 1229 [2]; [9],64 µg/mL
same,"Antibiotic MIC, Linezolid",MDREC 1229 [2]; [9],>128 µg/mL
same,"Antibiotic MIC, Vancomycin",MDREC 1229 [2]; [9],>128 µg/mL
same,"Antibiotic MIC, Erythromycin",MDREC 1229 [2]; [10],16 µg/mL
same,"Antibiotic MIC, Linezolid",MDREC 1229 [2]; [10],128 µg/mL
same,"Antibiotic MIC, Vancomycin",MDREC 1229 [2]; [10],>128 µg/mL
same,"Antibiotic MIC, Erythromycin",MDREC 1229 [2]; [11],8 µg/mL
same,"Antibiotic MIC, Linezolid",MDREC 1229 [2]; [11],64 µg/mL
same,"Antibiotic MIC, Vancomycin",MDREC 1229 [2]; [11],>128 µg/mL
same,"Antibiotic MIC, Erythromycin",MDREC 1229 [2]; [12],2 µg/mL
same,"Antibiotic MIC, Linezolid",MDREC 1229 [2]; [12],64 µg/mL
same,"Antibiotic MIC, Vancomycin",MDREC 1229 [2]; [12],128 µg/mL
same,"Antibiotic MIC, Erythromycin",MDREC 1229 [2]; [13],1 µg/mL
same,"Antibiotic MIC, Linezolid",MDREC 1229 [2]; [13],16 µg/mL
same,"Antibiotic MIC, Vancomycin",MDREC 1229 [2]; [13],32 µg/mL
same,"Antibiotic MIC, Erythromycin",MDREC 1229 [2]; [14],0.25 µg/mL
same,"Antibiotic MIC, Linezolid",MDREC 1229 [2]; [14],8 µg/mL
same,"Antibiotic MIC, Vancomycin",MDREC 1229 [2]; [14],16 µg/mL
same,"Antibiotic MIC, Erythromycin",MDREC 1229 [2]; [15],0 µg/mL
same,"Antibiotic MIC, Linezolid",MDREC 1229 [2]; [15],0 µg/mL
same,"Antibiotic MIC, Vancomycin",MDREC 1229 [2]; [15],0 µg/mL
same,Minimal inhibitory concentration MIC,B. subtilis,>128 µg/mL
same,Minimal inhibitory concentration MIC,MDREC 1238,64 µg/mL
same,Minimal inhibitory concentration MIC,MRSA 3126,>128 µg/mL
same,Minimal inhibitory concentration MIC,MRSA 3114,>128 µg/mL
same,Minimal inhibitory concentration MIC,MDRPA 2002,8 µg/mL
same,Minimal inhibitory concentration MIC,MDRPA 2003,16 µg/mL
same,Peptide MIC during treatment with antibiotic,A. baumannii [3]; [16],8 µg/mL
same,Peptide MIC during treatment with antibiotic,A. baumannii [3]; [17],4 µg/mL
same,Peptide MIC during treatment with antibiotic,A. baumannii [3]; [18],2 µg/mL
same,Peptide MIC during treatment with antibiotic,A. baumannii [3]; [19],0 µg/mL
same,Peptide MIC during treatment with antibiotic,A. baumannii [3]; linezolid 32 μg/ml (Conc./MIC 1/8),8 µg/mL
same,Peptide MIC during treatment with antibiotic,A. baumannii [3]; linezolid 64 μg/ml (Conc./MIC 1/4),4 µg/mL
same,Peptide MIC during treatment with antibiotic,A. baumannii [3]; linezolid […] (Conc./MIC 1),0 µg/mL
same,Peptide MIC during treatment with antibiotic,A. baumannii [3]; linezolid […] (Conc./MIC 1/2),4 µg/mL
same,Peptide MIC during treatment with antibiotic,A. baumannii [3]; [20],1 µg/mL
same,Peptide MIC during treatment with antibiotic,A. baumannii [3]; [21],0 µg/mL
same,Peptide MIC during treatment with antibiotic,A. baumannii [3]; vancomycin […] (Conc./MIC 1/4),1 µg/mL
same,Peptide MIC during treatment with antibiotic,A. baumannii [3]; vancomycin […] (Conc./MIC 1/8),4 µg/mL
same,Peptide MIC during treatment with erythromycin,MDRAB 12035 [4]; [16],16 µg/mL
same,Peptide MIC during treatment with erythromycin,MDRAB 12035 [4]; [17],8 µg/mL
same,Peptide MIC during treatment with erythromycin,MDRAB 12035 [4]; [18],4 µg/mL
same,Peptide MIC during treatment with erythromycin,MDRAB 12035 [4]; [19],0 µg/mL
same,Peptide MIC during treatment with linezolid,MDRAB 12035 [4]; linezolid 64 μg/ml (Conc./MIC 1/8),4 µg/mL
same,Peptide MIC during treatment with linezolid,MDRAB 12035 [4]; linezolid 512 μg/ml (Conc./MIC 1),0 µg/mL
same,Peptide MIC during treatment with linezolid,MDRAB 12035 [4]; linezolid […] (Conc./MIC 1/2),2 µg/mL
same,Peptide MIC during treatment with linezolid,MDRAB 12035 [4]; linezolid […] (Conc./MIC 1/4),2 µg/mL
same,Peptide MIC during treatment with vancomycin,MDRAB 12035 [4]; [20],2 µg/mL
same,Peptide MIC during treatment with vancomycin,MDRAB 12035 [4]; [21],1 µg/mL
same,Peptide MIC during treatment with vancomycin,MDRAB 12035 [4]; vancomycin […] (Conc./MIC 1/4),4 µg/mL
same,Peptide MIC during treatment with vancomycin,MDRAB 12035 [4]; vancomycin […] (Conc./MIC 1/8),4 µg/mL
same,Minimal inhibitory concentration MIC,S. epidermidis,>128 µg/mL
same,Minimal inhibitory concentration MIC,MDRAB 12036,32 µg/mL
same,Minimal inhibitory concentration MIC,MDRST 8007,32 µg/mL
same,Minimal inhibitory concentration MIC,S. typhimurium,16 µg/mL
same,Peptide MIC,MDREC 1229 [5]; [22],0 µg/mL
same,Peptide MIC,MDREC 1229 [5]; with Linezolid 512 μg/ml (Conc./MIC 1),0 µg/mL
same,Peptide MIC,E. coli; [22],0 µg/mL
same,Peptide MIC,E. coli; with Linezolid […] (Conc./MIC 1),0 µg/mL
same,Peptide MIC,E. coli; with Vancomycin 1024 μg/ml (Conc./MIC 1),0 µg/mL
same,Minimal inhibitory concentration MIC,P. aeruginosa,8 µg/mL
same,Minimal inhibitory concentration MIC,A. baumannii [6],16 µg/mL
same,"Peptide MIC, peptide alone",A. baumannii [6],16 µg/mL
same,Minimal inhibitory concentration MIC,MDRAB 12035 [7],32 µg/mL
same,"Peptide MIC, peptide alone",MDRAB 12035 [7],32 µg/mL
